The values below come from patent publication US12516016B2, “GPX4 inhibitors, pharmaceutical compositions thereof, and their use for treating GPX4-mediated diseases” (EUBULUS BIOTHERAPEUTICS (HONG KONG) LIMITED, priority 2020, dated 2026).

This assay deals with hepatocellular carcinoma cell line Hub-7. As to the kind of experiment: Cell proliferation assay (CELL-TITER GLO cell viability). The following applies: Hub-7 cells, 24 h incubation, read-out: Inhibition of Cell Proliferation EC50. It counts as cell-based. The protocol:
The activity of a test compound was determined in a cell proliferation assay using the hepatocellular carcinoma cell line […]. Cells (4,000 cells per well) were seeded in a 96-well tissue culture plate. After incubated overnight, a test compound was added at predetermined concentrations, starting with 10 μM and followed by 3-fold serial dilution. After the cells were incubated for 24 h, cell viability was determined using a CELL-TITER GLO® assay. The CELL-TITER GLO® reagent (50 μL) was added to each well and the luminescence was measured by a multimode microplate reader after a brief period of shaking. EC50 values were determined for the test compound. The results are summarized in Table 1, wherein A represents a value no greater than 100 nM, B represents a value greater than 100 nM but no greater than 500 nM, C represents a value greater than 500 nM but no greater than 2 μM, D represents a value greater than 2 μM but no greater than 10 μM; and E represents a value greater than 10 μM.

Where two headings read alike, the source gives them in different places.

As for `C#CC(=O)N(c1cccc(Cl)c1)C1(C(=O)NCC(=O)OCC)CCOCC1` [A191, Ethyl 2-(4-(N-(3-chlorophenyl)propiolamido)tetrahydro-2H-pyran-4-carboxamido)acetate], the EC50 (24 h) is 500 to 2000 nM.

Regarding `C#CC(=O)N(c1cccc(Cl)c1)C(C(=O)NCc1ccccc1)c1ccccc1` (stereo not shown) [A74, N-(2-(Benzylamino)-2-oxo-1-phenylethyl)-N-(3-chlorophenyl)propiolamide], the EC50 (24 h) is not above 100 nM.

`C#CC(=O)N(c1ccc(OC)cc1)C(C(=O)NC(C)(C)C)c1ccc(N)cc1` (stereo not shown) [A18, N-(1-(4-Aminophenyl)-2-(tert-butylamino)-2-oxoethyl)-N-(4-methoxyphenyl)-propiolamide]: the EC50 (24 h) was in the range of 500 to 2000 nM.

As to `C#CC(=O)N(c1ccc2c(c1)C(=O)OC2)C(C(=O)NCc1ccccc1)c1ccccc1` (stereo not shown) [A143, N-(2-(Benzylamino)-2-oxo-1-phenylethyl)-N-(3-oxo-1,3-dihydroisobenzofuran-5-yl)propiolamide], under “24 h”, the EC50 was not above 100 nM.

With `C#CC(=O)N(c1ccc(CO)cc1)C(C(=O)NC(C)(C)C)c1ccc(N)cc1` (stereo not shown) [A16, N-(1-(4-Aminophenyl)-2-(tert-butylamino)-2-oxoethyl)-N-(4-(hydroxymethyl)-phenyl)propiolamide], the EC50 (24 h) was in the range of 2000 to 10000 nM.

As for `O=C(CCl)N(c1cccc2nsnc12)C1(C(=O)NCCc2ccccc2)CCOCC1` [C29, 4-(N-(Benzo[c][1,2,5]thiadiazol-4-yl)-2-chloroacetamido)-N-phenethyltetrahydro-2H-pyran-4-carboxamide], the EC50 (24 h) lay within 500 to 2000 nM.

With `C#CC(=O)N(c1ccc(N)cc1)C(C(=O)NC(C)(C)C)c1ccc(N)cc1` (stereo not shown) [A9, N-(4-Aminophenyl)-N-(1-(4-aminophenyl)-2-(tert-butylamino)-2-oxoethyl)-propiolamide], the EC50 (24 h) lay in the range of 2000 to 10000 nM.

As to `C#CC(=O)N(c1ccc(NS(C)(=O)=O)cc1)C(C(=O)NC(C)(C)C)c1ccc(N)cc1` (stereo not shown) [A17, N-(1-(4-Aminophenyl)-2-(tert-butylamino)-2-oxoethyl)-N-(4-(methyl-sulfonamido)phenyl)propiolamide], the EC50 (24 h) is more than 10000 nM.

As for `C#CC(=O)N(c1cccc(Cl)c1)C(C(=O)NCc1ccccc1F)c1ccccc1` (stereo not shown) [A116, N-(3-Chlorophenyl)-N-(2-((2-fluorobenzyl)amino)-2-oxo-1-phenylethyl)-propiolamide], the EC50 (24 h) was in the range of 100 to 500 nM.

For the compound `O=C(NCCc1ccccc1)C(c1ccc([N+](=O)[O-])cc1)N(Cc1cccs1)C(=O)CCl` (stereo not shown) [C8, 2-Chloro-N-(1-(4-nitrophenyl)-2-oxo-2-(phenethylamino)ethyl)-N-(thiophen-2-ylmethyl)acetamide], the EC50 (24 h) is 2000 to 10000 nM.

For `CCC(=O)N(c1cccc(Cl)c1)C(C(=O)NCc1ccccc1)c1ccc(N)cc1` (stereo not shown) [D4, N-(1-(4-Aminophenyl)-2-(benzylamino)-2-oxoethyl)-N-(3-chlorophenyl)-propionamide], the EC50 (24 h) was more than 10000 nM.

`C#CC(=O)N(c1cc(Cl)ccc1Cl)C(C(=O)NCc1ccccc1)c1ccccc1` (stereo not shown) [A145, N-(2-(Benzylamino)-2-oxo-1-phenylethyl)-N-(2,5-dichlorophenyl)propiolamide]: the EC50 (24 h) is not above 100 nM.

In the case of `C#CC(=O)N(c1cccc(Cl)c1)C(C(=O)NCc1ccccc1)c1cccc(OCC(=O)OC)c1` (stereo not shown) [A83, Methyl 2-(3-(2-(benzylamino)-1-(N-(3-chlorophenyl)propiolamido)-2-oxoethyl)-phenoxy)acetate], under “24 h”, the EC50 was in the range of 100 to 500 nM.

As for `C#CC(=O)N(c1cccc(Cl)c1)[C@]1(C(=O)NCc2ccccc2)CC[C@@H](O)CC1` [A111, (1R,4R)—N-Benzyl-1-(N-(3-chlorophenyl)propiolamido)-4-hydroxycyclohexane-carboxamide], the EC50 is 100 to 500 nM.

Take `C#CC(=O)N(c1cccc2nsnc12)C(C(=O)NCc1ccccc1)c1ccccc1` (stereo not shown) [A85, N-(Benzo[c][1,2,5]thiadiazol-4-yl)-N-(2-(benzylamino)-2-oxo-1-phenylethyl)-propiolamide]: the EC50 (24 h) is not above 100 nM.

Regarding `C#CC(=O)N(c1ccn2cnnc2c1)C1(C(=O)NCc2ccccc2)CCOCC1` [A163, 4-(N-([1,2,4]Triazolo[4,3-a]pyridin-7-yl)propiolamido)-N-benzyltetrahydro-2H-pyran-4-carboxamide], the EC50 (24 h) fell in the range of 500 to 2000 nM.

As for `CC(=O)N(c1ccc2c(cnn2C)c1)C1(C(=O)NCc2ccccc2)CCCOC1` (stereo not shown) [D2, N-Benzyl-3-(N-(1-methyl-1H-indazol-5-yl)acetamido)tetrahydro-2H-pyran-3-carboxamide], for the setting “24 h”, the EC50 is more than 10000 nM.

Consider `C#CC(=O)N(Cc1cccc(O)c1)C1(C(=O)NCc2ccccc2)CCOCC1` [A138, N-Benzyl-4-(N-(3-hydroxybenzyl)propiolamido)tetrahydro-2H-pyran-4-carboxamide], for which the EC50 (24 h) was not above 100 nM.

For the compound `C#CC(=O)N(c1cccc(O)c1)C(C(=O)NCc1ccccc1)c1cccc(N)c1` (stereo not shown) [A37, N-(1-(3-Aminophenyl)-2-(benzylamino)-2-oxoethyl)-N-(3-hydroxyphenyl)-propiolamide], the EC50 (24 h) is not above 100 nM.

Consider `C#CC(=O)N(c1ccc2cnn(C)c2c1)C(C(=O)NCc1ccccc1)c1ccccc1` (stereo not shown) [A104, N-(2-(Benzylamino)-2-oxo-1-phenylethyl)-N-(1-methyl-1H-indazol-6-yl)-propiolamide], for which the EC50 (24 h) is not above 100 nM.

On to `C#CC(=O)N(c1ccc2c(c1)ncn2C)C1(C(=O)NCc2ccccc2)CCOCC1` [A156, N-Benzyl-4-(N-(1-methyl-1H-benzo[d]imidazol-5-yl)propiolamido)tetrahydro-2H-pyran-4-carboxamide], for which the EC50 (24 h) lay in the range of 500 to 2000 nM.

On to `C#CC(=O)N(c1cccn2cnnc12)C(C(=O)NCc1ccccc1)c1ccccc1` (stereo not shown) [A147, N-([1,2,4]Triazolo[4,3-a]pyridin-8-yl)-N-(2-(benzylamino)-2-oxo-1-phenylethyl)-propiolamide], for which the EC50 (24 h) was 100 to 500 nM.

With `C#CC(=O)N(C1(C(=O)NCc2ccccc2)CCOCC1)C1(c2ccccc2)CC1` [A144, N-Benzyl-4-(N-(1-phenylcyclopropyl)propiolamido)tetrahydro-2H-pyran-4-carboxamide], the EC50 (24 h) is not above 100 nM.

Turning to `C#CC(=O)N(c1cccc(Cl)c1)C(C(=O)NCc1ccccc1)c1cccc(CCO)c1` (stereo not shown) [A95, N-(2-(Benzylamino)-1-(3-(2-hydroxyethyl)phenyl)-2-oxoethyl)-N-(3-chloro-phenyl)propiolamide], the EC50 (24 h) was in the range of 100 to 500 nM.

For the compound `C#CC(=O)N(c1ccc(S(N)(=O)=O)cc1)C(C(=O)NC(C)(C)C)c1ccc(N)cc1` (stereo not shown) [A11, N-(1-(4-Aminophenyl)-2-(tert-butylamino)-2-oxoethyl)-N-(4-sulfamoylphenyl)-propiolamide], the EC50 (24 h) is more than 10000 nM.

Regarding `C=C(F)C(=O)N(c1cccc(Cl)c1)C(C(=O)NCc1ccccc1)c1ccc(N)cc1` (stereo not shown) [B3, N-(1-(4-Aminophenyl)-2-(benzylamino)-2-oxoethyl)-N-(3-chlorophenyl)-2-fluoroacrylamide], the EC50 (24 h) is more than 10000 nM.

Consider `COc1ccc(N(C(=O)C#CCO)C(C(=O)NCCc2ccccc2)c2cccs2)cc1Cl` (stereo not shown) [A118], for which the EC50 is 2000 to 10000 nM.

In the case of `C#CC(=O)N(c1ccc2c(cnn2C)c1)C(C(=O)NCc1ccccc1)c1ccccc1` (stereo not shown) [A107, N-(2-(Benzylamino)-2-oxo-1-phenylethyl)-N-(1-methyl-1H-indazol-5-yl)-propiolamide], the EC50 (24 h) is not above 100 nM.

For the compound `C=CC(=O)N(c1cccc(Cl)c1)C1(C(=O)NCc2ccccc2)CCOCC1` [B5, N-Benzyl-4-(N-(3-chlorophenyl)acrylamido)tetrahydro-2H-pyran-4-carboxamide], under “24 h”, the EC50 was more than 10000 nM.

As to `C#CC(=O)N(c1ccc(Cl)c(Cl)c1)C1(C(=O)NCc2ccccc2)CCCCC1` [A109, N-Benzyl-1-(N-(3,4-dichlorophenyl)propiolamido)cyclohexanecarboxamide], under “24 h”, the EC50 lay within 100 to 500 nM.

Consider `COC(=O)c1cccc(N(C(=O)CCl)C(C(=O)NCCc2ccccc2)c2ccc([N+](=O)[O-])cc2)c1` (stereo not shown) [C7, Methyl-3-(2-chloro-N-(1-(4-nitrophenyl)-2-oxo-2-(phenethylamino)ethyl)-acetamido)benzoate], for which, under “24 h”, the EC50 was 100 to 500 nM.

In the case of `C#CC(=O)N(c1ccc2scnc2c1)C(C(=O)NCc1ccccc1)c1ccccc1` (stereo not shown) [A88, N-(Benzo[d]thiazol-5-yl)-N-(2-(benzylamino)-2-oxo-1-phenylethyl)-propiolamide], the EC50 (24 h) was not above 100 nM.

Turning to `C#CC(=O)N(c1ccc(C(=O)OC)cc1)C(C(=O)NCc1ccccc1)c1cccc(N)c1` (stereo not shown) [A49, Methyl 4-(N-(1-(3-aminophenyl)-2-(benzylamino)-2-oxoethyl)propiolamido)-benzoate], the EC50 (24 h) is not above 100 nM.

Turning to `C#CC(=O)N(c1ccc(CO)cc1)C(C(=O)NCc1ccccc1)c1ccc(N)cc1` (stereo not shown) [A67, N-(1-(4-Aminophenyl)-2-(benzylamino)-2-oxoethyl)-N-(4-(hydroxymethyl)-phenyl)propiolamide], the EC50 (24 h) lay within 500 to 2000 nM.

For the compound `C#CC(=O)N(c1cccc(Cl)c1)C(C(=O)NCc1ccccc1)c1cccc(N)c1` (stereo not shown) [A33, N-(1-(3-Aminophenyl)-2-(benzylamino)-2-oxoethyl)-N-(3-chlorophenyl)-propiolamide], the EC50 (24 h) was not above 100 nM.

`C#CC(=O)N(c1cccc2c1OCO2)C(C(=O)NCc1ccccc1)c1ccccc1` (stereo not shown) [A97, N-(Benzo[d][1,3]dioxol-4-yl)-N-(2-(benzylamino)-2-oxo-1-phenylethyl)-propiolamide]: the EC50 (24 h) lay in the range of 100 to 500 nM.

For the compound `C#CC(=O)N(c1cccc(C(N)=O)c1)C(C(=O)NCc1ccccc1)c1cccc(N)c1` (stereo not shown) [A47, 3-(N-(1-(3-Aminophenyl)-2-(benzylamino)-2-oxoethyl)propiolamido)-benzamide], the EC50 (24 h) was more than 10000 nM.
